Laboratory results taken from patent US10202388B2, “Fused-ring compounds, pharmaceutical composition and uses thereof” (SHANGHAI DE NOVO PHARMATECH CO., LTD., priority 2015, dated 2019).

What was measured:
Human recombinant IDO1 = Human recombinant IDO1 (Homo sapiens (Human), UniProt P14902); test: IDO1 enzymatic assay (UV absorption at 321 nm); assay type: biochemical; conditions: human recombinant IDO1, 80 min incubation, room temperature; read-out: hIDO1 IC50
Protocol: The detailed experimental method is as follow:
The compounds described in this disclosure were dissolved in 10% DMSO to predefined concentration. All of the reactions were conducted at room temperature in this disclosure. Human recombinant IDO1 (BPS Bioscience) was added so that its concentration was 200 nm in the reaction buffer solution (200 μL). […] 10 μL test compound solution was added into the above reaction solution (200 μL), so that the final concentration of DMSO in all reaction wells was 0.5%. % concentration was volume %. After 80 min incubation of the reaction solution, the UV absorbance was measured using TECAN Infinite M1000 plate reader. For the negative control (blank), 10 μl of the assay buffer was added instead of the IDO1
All reagents (excluding human recombinant IDO1) were purchased from Sigma Aldrich, MO, USA.
(§1) The percent activity in the presence of each compound was calculated according to the following equation: % activity=[(A−Ab)/(At−Ab)]×100, where A=the absorption signal in the presence of the compound, Ab=the absorption signal of blank, At=the absorption signal in the absence of the compound. […] The IC50 was calculated using non-linear regression in Graph Pad Prism® 4.

HeLa cell IDO1 = HeLa cell IDO1 (Homo sapiens (Human), UniProt P14902); test: HeLa cell based IDO1 inhibition assay (kynurenine readout, IFN-γ induced); conditions: HeLa cells
Protocol: HeLa cell line was purchased from ATCC, cultured in MEM/EBSS medium supplemented with 10% FBS, penn-step (100,000 U/L), non-essential amino acid (0.1 Mm), sodium pyruvate (1.0 Mm). Cells were cultured at 37° C., 95% humidity and 5% CO2. […] The detailed experimental method is as follow:
25,000 HeLa cells were placed on 96-well plates. Each well contained 100 μl culture medium, subsequently IFN-γ and test compounds at specific concentrations (concentration range between 10 μM and 1 Nm, so that the final volume of culture medium was 200 μL) were added and IFN-γ was used to induce IDO1 expression. After incubation, 140 μL supernatant was transferred to 96-well plates. After adding 6.1 N TCA (10 μL), the plates were continuously incubated at 50° C. for 30 min, to hydrolyze N-formylkynurenine produced by IDO to kynurenine. The reaction solution was then centrifuged at 2500 rpm for 10 min to remove precipitate. 100 μL/well supernatant was then transferred to another 96-well plate. 100 μL of 2% (w/v) 4-N,N-dimethyl aminobenzaldehyde acetic acid solution was added and incubated at room temperature for 10 min. The yellow color derived from kynurenine was recorded by measuring absorbance at 480 nm using a microplate reader (TECAN Infinite M1000 Pro).

HeLa cell based IDO1 = HeLa cell based IDO1 (Homo sapiens (Human), UniProt P14902); test: Three-point IDO1 cellular assay (HeLa, 10, 100 and 1000 nM); conditions: HeLa cells, 100 ng/mL IFN-γ, 18 hours; for inhibition values of %: at 1000 nM
Protocol: To perform the 3-point HeLa cell based IDO1 assay, HeLa cells were seeded at 25,000 cells per well into 96-well microplate in 100 μL of growth medium. Cells were incubated at 37° C. and 5% CO2 overnight. The next day 100 μL per well of diluted inhibitor in growth medium at 10, 100 and 1000 nM, respectively, was added at a final concentration of 100 ng/ML human IFN-γ. Cells were incubated at 37° C. in a CO2 incubator for 18 hours. […] The plate was incubated at 50° C. for 30 min to hydrolyze N-formylkynurenine produced by IDO1 to kynurenine. The plate was then centrifuged at 2500 rpm for 10 min to remove sediments. 100 μl of supernatant per well was transferred to another 96-well plate and mixed with 100 μL of 2% (w/v) 4-(Dimethylamino) benzaldehyde in acetic acid. The plate was incubated at room temperature for 10 minutes, the yellow color derived from kynurenine was recorded by measuring absorbance at 480 nm using a microplate reader (TECAN Infinite M1000 Pro). Cell based assays were performed in triplicate at each concentration. The absorbance data were analyzed using the computer software, Graphpad Prism. In the absence of the compound and presence of 100 ng/ML IFN-γ, the absorbance (At) in each data set was defined as 100%. The absorbance of medium blank (Ab) in each data set was defined as 0%. The percent absorbance in the presence of each compound was calculated according to the following equation: % Absorbance=(A−Ab)/(At−Ab), where A=the absorbance in the presence of the compound and IFN-γ, Ab=the absorbance of medium blank, and At=the absorbance in the absence of the compounds and presence of IFN-γ. The values of % absorbance versus the compound concentrations were then determined.

recombinant TDO2 = recombinant TDO2 (Homo sapiens (Human), UniProt P48775); test: TDO2 enzymatic assay (UV absorption at 321 nm); assay type: biochemical; conditions: 50 nM TDO2, 200 μM tryptophan, 75 min
Protocol: The TDO2 enzymatic assay was performed by UV absorption using a recombinant TDO2 and L-Tryptophan substrate. The UV absorption signal at 321 nm is correlated with the amount of N-formylkynurenine reaction product of TDO2. The compounds were diluted in 10% DMSO and 5 μL of the dilution was added to a 100 μL reaction so that the final concentration of DMSO is 0.5% in all of reactions. All of the reactions were conducted at room temperature. The 100 μL reaction mixture in TDO2 Assay Buffer contains 50 nM TDO2, the indicated amount of the inhibitor, 200 μM tryptophan, and the coupled reaction components. The reaction mixture incubated for 75 min prior to reading the UV absorption signal. For the negative control (blank), 5 μl of the assay buffer was added instead of the TDO2.
as §1, with “Absorption signals were measured using a Tecan Infinite M1000 plate reader. Binding experiments were performed in duplicate at each concentration. The percent” for “The percent”

Chain of recombinant TDO2 (P48775 whole entry, species assumed): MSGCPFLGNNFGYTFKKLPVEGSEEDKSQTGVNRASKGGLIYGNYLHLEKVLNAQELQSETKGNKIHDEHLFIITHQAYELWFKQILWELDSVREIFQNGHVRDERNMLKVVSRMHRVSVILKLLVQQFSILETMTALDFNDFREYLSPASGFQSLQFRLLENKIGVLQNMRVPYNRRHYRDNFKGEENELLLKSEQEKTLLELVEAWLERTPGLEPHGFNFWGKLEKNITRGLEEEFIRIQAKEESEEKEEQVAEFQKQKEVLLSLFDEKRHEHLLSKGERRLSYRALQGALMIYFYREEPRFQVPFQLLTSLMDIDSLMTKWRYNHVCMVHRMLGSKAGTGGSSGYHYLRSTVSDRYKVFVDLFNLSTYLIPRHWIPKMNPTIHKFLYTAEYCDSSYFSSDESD
Chain of HeLa cell IDO1 (P14902 whole entry): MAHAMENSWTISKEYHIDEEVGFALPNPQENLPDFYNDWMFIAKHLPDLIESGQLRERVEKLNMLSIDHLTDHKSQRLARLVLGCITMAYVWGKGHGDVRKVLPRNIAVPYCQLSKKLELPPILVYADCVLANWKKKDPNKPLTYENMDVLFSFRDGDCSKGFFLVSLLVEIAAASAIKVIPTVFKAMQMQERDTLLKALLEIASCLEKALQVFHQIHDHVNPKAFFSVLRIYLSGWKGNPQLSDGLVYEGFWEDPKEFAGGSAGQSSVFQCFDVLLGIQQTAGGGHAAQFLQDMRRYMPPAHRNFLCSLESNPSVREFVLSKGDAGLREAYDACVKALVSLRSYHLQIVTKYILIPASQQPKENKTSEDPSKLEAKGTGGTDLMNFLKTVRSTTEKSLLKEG
Chain of Human recombinant IDO1 (P14902 whole entry): as above
Chain of HeLa cell based IDO1 (P14902 whole entry): as above

| Compound | IC50 (Human recombinant IDO1) | IC50 (HeLa cell IDO1) | inhibition at 0.1 µM (HeLa cell based IDO1; at 100 nM) | IC50 (recombinant TDO2) | inhibition values of % (HeLa cell based IDO1) |
| --- | --- | --- | --- | --- | --- |
| O=C(C[C@H]1c2ccccc2-c2cncn21)C12CC3CC(CC(C3)C1)C2 (single isomer, unassigned) [Compound 1-2] | < 100 nM | 100 to 500 nM |  |  |  |
| O=C(C[C@@H]1c2ccccc2-c2cncn21)C12CC3CC(CC(C3)C1)C2 (single isomer, unassigned) [Compound 1-3] | < 100 nM | < 100 nM |  |  |  |
| O=C(NC1C2CC3CC1CC(C(O)CC1c4ccccc4-c4cncn41)(C3)C2)c1ccccc1 (single isomer, unassigned) [Compound 52A] | < 100 nM | < 100 nM |  |  |  |
| O=C(NC1C2CC3CC1CC(C(O)CC1c4ccccc4-c4cncn41)(C3)C2)c1ccccc1 (single isomer, unassigned) [Compound 52B] | 100 to 500 nM | < 100 nM |  |  |  |
| O=C(Cc1ccccc1)NC1C2CC3CC1CC(C(O)CC1c4ccccc4-c4cncn41)(C3)C2 (single isomer, unassigned) [Compound 53A] | < 100 nM |  | > 50% |  |  |
| OC(CC1c2ccccc2-c2cncn21)C12CC3CC(CC(C3)C1)C2 (stereo not shown) [Compound 1] | < 100 nM | 100 to 500 nM |  |  |  |
| OC(CC1c2ccccc2-c2cncn21)C12CC3CC(CC(O)(C3)C1)C2 (stereo not shown) [Compound 9] | < 100 nM | 100 to 500 nM |  |  |  |
| OC1C2CC3CC1CC(C(O)CC1c4ccccc4-c4cncn41)(C3)C2 (stereo not shown) [Compound 10A] | < 100 nM | < 100 nM |  |  |  |
| CC1(O)C2CC3CC1CC(C(O)CC1c4ccccc4-c4cncn41)(C3)C2 (stereo not shown) [Compound 11A-2] | < 100 nM |  |  | < 500 nM |  |
| OC(CC1c2ccccc2-c2cncn21)C12CC3CC(CC(C3)C1)C2 (stereo not shown) [Compound 13] | < 100 nM | 100 to 500 nM |  |  |  |
| CC1(O)C2CC3CC1CC([C@H](O)CC1c4ccccc4-c4cncn41)(C3)C2 (stereo partly shown) [Compound 14A-4] | < 100 nM | < 100 nM |  |  |  |
| OC1C2CC3CC1CC(C(O)CC1c4ccccc4-c4cncn41)(C3)C2 (stereo not shown) [Compound 14A] | < 100 nM | < 100 nM |  |  |  |
| OC(CC1c2c(F)cccc2-c2cncn21)C12CC3CC(CC(C3)C1)C2 (stereo not shown) [Compound 21] | < 100 nM | < 100 nM |  |  |  |
| OC(CC1c2c(F)cccc2-c2cncn21)C12CC3CC(CC(O)(C3)C1)C2 (stereo not shown) [Compound 22] | < 100 nM | 100 to 500 nM |  |  |  |
| OC1C2CC3CC1CC([C@H](O)CC1c4c(F)cccc4-c4cncn41)(C3)C2 (stereo partly shown) [Compound 23A-1] | < 100 nM | 100 to 500 nM |  |  |  |
| OC1C2CC3CC1CC([C@H](O)CC1c4c(F)cccc4-c4cncn41)(C3)C2 (stereo partly shown) [Compound 23A] | < 100 nM | < 100 nM |  |  |  |
| OC1C2CC3CC1CC([C@@H](O)CC1c4c(F)cccc4-c4cncn41)(C3)C2 (stereo partly shown) [Compound 23B] | 100 to 500 nM |  |  |  | greater than 50% |

| Compound | IC50 (Human recombinant IDO1) | IC50 (HeLa cell IDO1) | inhibition at 0.1 µM (HeLa cell based IDO1; at 100 nM) | IC50 (recombinant TDO2) | inhibition values of % (HeLa cell based IDO1) |
| --- | --- | --- | --- | --- | --- |
| OC(CC1c2c(F)cccc2-c2cncn21)C12CC3CC(CC(C3)C1)C2 (stereo not shown) [Compound 25] | < 100 nM | 100 to 500 nM |  |  |  |
| OC1C2CC3CC1CC([C@H](O)CC1c4c(F)cccc4-c4cncn41)(C3)C2 (stereo partly shown) [Compound 26A-3] | < 100 nM | < 100 nM |  | < 500 nM |  |
| OC1C2CC3CC1CC([C@H](O)CC1c4c(F)cccc4-c4cncn41)(C3)C2 (stereo partly shown) [Compound 26A] | < 100 nM | < 100 nM |  |  |  |
| O=S(=O)(Cc1ccccc1)NC1C2CC3CC1CC([C@H](O)CC1c4c(F)cccc4-c4cncn41)(C3)C2 (stereo partly shown) [Compound 45A-1] | < 100 nM | < 100 nM |  | < 500 nM |  |
| O=S(=O)(Cc1ccccc1)NC1C2CC3CC1CC([C@@H](O)CC1c4c(F)cccc4-c4cncn41)(C3)C2 (stereo partly shown) [Compound 45A-4] | 100 to 500 nM | 100 to 500 nM |  | 1000 to 10000 nM |  |
| O=S(=O)(Cc1ccccc1)NC1C2CC3CC1CC(C(O)CC1c4c(F)cccc4-c4cncn41)(C3)C2 (stereo not shown) [Compound 45A] | < 100 nM | < 100 nM |  |  |  |
| CS(=O)(=O)NC1C2CC3CC1CC(C(O)CC1c4c(F)cccc4-c4cncn41)(C3)C2 (stereo not shown) [Compound 46] | < 100 nM | < 100 nM |  |  |  |
| O=C(CC1CCCCC1)NC1C2CC3CC1CC(C(O)CC1c4c(F)cccc4-c4cncn41)(C3)C2 (stereo not shown) [Compound 49] | < 100 nM | < 100 nM |  |  |  |
| O=C(Nc1ccccc1)NC1C2CC3CC1CC(C(O)CC1c4c(F)cccc4-c4cncn41)(C3)C2 (stereo not shown) [Compound 55] | < 100 nM | < 100 nM |  |  |  |
| CC(C)(O)CCOC1C2CC3CC1CC(C(O)CC1c4c(F)cccc4-c4cncn41)(C3)C2 (stereo not shown) [Compound 58] | 100 to 500 nM | < 100 nM |  |  |  |
| OCCOC1C2CC3CC1CC(C(O)CC1c4c(F)cccc4-c4cncn41)(C3)C2 (stereo not shown) [Compound 61A] | < 100 nM | < 100 nM |  |  |  |
| OC(CC1c2ccccc2-c2cncn21)C12CC3CC(C1)C(c1ccccc1)C(C3)C2 (stereo not shown) [Compound 62A] | < 100 nM |  |  |  | greater than 50% |
| Nc1nonc1C(=NO)Nc1ccc(F)c(Cl)c1 [Ref. B, 4-amino-N-(3-chloro-4-fluorophenyl)-N′-hydroxy-1,2,5-oxadiazole-3-carboximidamide, reference compound] |  |  |  | 10000 to 100000 nM |  |
| OC(CC1c2ncccc2-c2cncn21)C1CCCCC1 (stereo not shown) [compound 3] | 100 to 500 nM |  |  |  |  |
| OC(CC1c2ncccc2-c2cncn21)C12CC3CC(CC(C3)C1)C2 (stereo not shown) [compound 4] | 100 to 500 nM | 500 to 1000 nM |  |  |  |
| OC(CC1c2cc(F)ccc2-c2cncn21)C12CC3CC(CC(C3)C1)C2 (stereo not shown) [compound 7] | 100 to 500 nM |  |  |  |  |
| OC(CC1c2cccc(F)c2-c2cncn21)C12CC3CC(CC(C3)C1)C2 (stereo not shown) [compound 8] | 100 to 500 nM |  |  |  |  |
